Measurements: patent publication US20110002989A1, “METHODS, DOSAGE FORMS AND KITS FOR ADMINISTERING ZIPRASIDONE WITHOUT FOOD” (Pfizer Inc., priority 2008, published 2011)
Structures can show the parent of a compound that is named as a salt.

Columns and labels:
[1] = In vitro dissolution test in 0.01 N HCl simulated gastric buffer pH 2.0 (MDC and AUC90); format: physicochemical; settings: for AUC90 / MDC: 200 μgA/mL if all dissolved, pH 2.0, 37° C., 100 rpm; for AUC Enhancement Relative to Control 1: AUC90, pH 2.0 simulated gastric buffer; for AUC Enhancement Relative to Control 1 / MDC Enhancement Relative to Control 1: 37° C.; for MDC Enhancement Relative to Control 1: pH 2.0 simulated gastric buffer
Method: An in vitro dissolution test may be performed by adding the test form of ziprasidone to a dissolution test media consisting of a simulated gastric buffer (GB) solution of 0.01 N HCl at pH 2.0.
In such a test, two end-points are assessed: 1) the maximum dissolved drug concentration (MDC) of ziprasidone in the test media, and 2) the area under the concentration versus time curve of dissolved ziprasidone in the in vitro dissolution test. More specifically, in the in vitro use environment, the concentration of dissolved ziprasidone over any 90-minute period from about 0 to about 270 minutes following introduction to the use environment is measured.
An in vitro test to evaluate enhanced ziprasidone dissolution rate in aqueous solution can be conducted by adding with agitation a sufficient quantity of test ziprasidone form to the test medium, such that if all the ziprasidone dissolved, the theoretical concentration of ziprasidone would exceed the equilibrium concentration provided by the control ziprasidone form by a factor of at least 2, and preferably by a factor of at least 10. Performing the test at this concentration will ensure that the MDC of ziprasidone can be determined.
Then, the concentration of dissolved ziprasidone is measured as a function of time by sampling the test medium and plotting ziprasidone concentration in the test medium versus time so that the dissolution rate can be ascertained. The MDC is taken to be the maximum value of dissolved ziprasidone measured over the duration of the test.
During such a test, the concentration of “dissolved drug” should be measured using standard analytical techniques, including high-performance liquid chromatography (HPLC), ultraviolet (UV) absorption, or other standard methods known in the art. When using solution techniques, such as HPLC, the test solution should be either filtered or centrifuged, to avoid large drug particulates that would give an erroneous determination.
“Dissolved drug” is typically taken as that material that either passes a 0.45 μm syringe filter or, alternatively, the material that remains in the supernatant following centrifugation. Filtration can be conducted using a 13 mm, 0.45 μm polyvinylidine difluoride syringe filter sold by Scientific Resources under the trademark TITAN®. Centrifugation is typically carried out in a polypropylene microcentrifuge tube by centrifuging at 13,000 G for 60 seconds. Other similar filtration or centrifugation methods can be employed and useful results obtained. For example, using other types of microfilters may yield values somewhat higher or lower (±10-40%) than that obtained with the filter specified above but will still allow identification of preferred dissolution rate-improved forms.
A specific example of a dissolution test for ascertaining solubility and dissolution rate of a test ziprasidone form is as follows: First, a sufficient amount of the test form is placed into a dissolution flask such that the concentration of ziprasidone would have been 200 μgA/mL if all the ziprasidone dissolved. A simulated GB solution at pH 2.0 is then added and the mixture stirred at a stirred speed of 100 rpm. The test is performed at 37° C. Using UV probes, the concentration of dissolved ziprasidone is then measured over time for at least 90 minutes. The formulation is considered to be a solubility-improved form or dissolution rate-improved form of ziprasidone if it provides at least one of (1) a MDC that is greater than that of the control, (2) an AUC90 that is greater than that of the control, or (3) both (1) and (2). The control formulation, as discussed above, is crystalline ziprasidone HCl monohydrate as is used in the GEODON/ZELDOX™ commercial capsules.
The following test was used to evaluate various ziprasidone formulations. […]

[2] = depending on the dose, healthy volunteers; cited from earlier work

Row | Compound | AUC90 ([1]; hydrochloride monohydrate) [mg·min/mL] | MDC ([1]; hydrochloride monohydrate) [μgA/mL] | AUC90 [1] [mg·min/mL] | MDC [1] [μgA/mL] | AUC Enhancement Relative to Control 1 [1] [fold] | MDC Enhancement Relative to Control 1 [1] [fold] | enhanced absorption when given with food [2]
1 | O=C1Cc2cc(CCN3CCN(c4nsc5ccccc45)CC3)c(Cl)cc2N1 [Control 1, ziprasidone hydrochloride monohydrate, reference compound] | 1.6 | 25 |  |  |  |  | 
2 | O=C1Cc2cc(CCN3CCN(c4nsc5ccccc45)CC3)c(Cl)cc2N1 [Example 6, ziprasidone mesylate] |  |  | 9.0 | 140 | 5.5 | 5.5 | 
3 | O=C1Cc2cc(CCN3CCN(c4nsc5ccccc45)CC3)c(Cl)cc2N1 [Example 7, ziprasidone free base] |  |  | 7.0 | 85 | 4.3 | 3.3 | 
4 | O=C1Cc2cc(CCN3CCN(c4nsc5ccccc45)CC3)c(Cl)cc2N1 [Ziprasidone, 5-[2-[4-(1,2-benzisothiazol-3-yl)-1-piperazinyl]ethyl]-6-chloro-1,3-dihydro-2H-indol-2-one] |  |  |  |  |  |  | approximately 100%
5 | ziprasidone tartrate [Example 9] |  |  | 6.1 | 91 | 3.7 | 3.6 | 
6 | ziprasidone tosylate [Example 8] |  |  | 3.8 | 54 | 2.3 | 2.1 | 

The next lines start with results.

Row | AUC90 ([1]; hydrochloride monohydrate) [mg·min/mL] | MDC ([1]; hydrochloride monohydrate) [μgA/mL] | AUC90 [1] [mg·min/mL] | MDC [1] [μgA/mL] | AUC Enhancement Relative to Control 1 [1] [fold] | MDC Enhancement Relative to Control 1 [1] [fold] | Compound | enhanced absorption when given with food [2]
7 |  |  | 6.1 | 76 | 3.7 | 3.0 | NC(CC(=O)O)C(=O)O.O=C1Cc2cc(CCN3CCN(c4nsc5ccccc45)CC3)c(Cl)cc2N1 [Example 10, ziprasidone aspartate] | 
8 |  |  | 2.4 | 33 | 1.5 | 1.3 | ziprasidone citrate [Example 11] | 
9 |  |  | 4.9 | 59 | 3.0 | 2.3 | ziprasidone succinate [Example 12] | 
